Laboratory results taken from patent US20210369720A1, “SYNERGISTIC COMPOSITION HAVING NEUROPROTECTIVE PROPERTIES AND METHODS OF USE THEREOF” (Rutgers, The State University of New Jersey, priority 2018, published 2021).

Assays:
PP2A [1] = assay: Western blot of PP2A methylation, striatal tissue lysates of Syn^Tg mice; assay type: in vivo; conditions: EHT 12 mg/kg/day and/or caffeine 50 mg/kg/day
Excerpt: (§1) Thy1-α-synuclein transgenic mice (Syn^Tg) on BDF1 background overexpressing human wild-type α-synuclein under the control of the Thy1 promoter were maintained by mating heterozygous transgenic females with WT BDF1 males (Rockenstein E, et al. (2002) Differential neuropathological alterations in transgenic mice expressing alpha-synuclein from the platelet-derived growth factor and Thy-1 promoters. J Neurosci Res 68(5):568-578). BDF1 mice (mixed C57BL/6-DBA/2) were generated every three months by mating female C57BL/6 (The Jackson Laboratory) and male DBA/2 mice (Charles River). Experiments were performed with male transgenic mice and their WT littermates. […] Wild-type littermates received regular water and control chow. […] At two months of age, mice were inoculated with α-Syn PFF unilaterally in the striatum. These treatments continued throughout the experiment until animals were sacrificed. Mice were weighed and their food and water intake was quantified weekly. Animals were housed 2-5/cage in an AAALAC approved facility in a temperature- and humidity-controlled environment under a 12-hour light/dark cycle and were maintained on a diet of lab chow and water ad libitum. All animal procedures were approved by the Rutgers-Robert Wood Johnson Medical School Institutional Animal Care and Use Committee and were performed according to the National Institutes of Health Guide for the Care and Use of Laboratory Animals.
(§2) Human neuroblastoma SH-SY5Y cells were cultured in DMEM-F12 with 10% FBS. At 50% confluency, cells were treated with 1 gg/ml mouse α-Syn PFF in DMEM-F12 with 1% FBS for 7 days. Medium was refreshed every 3 days. Cell harvesting was done with 2% SDS in PBS supplemented with protease inhibitor (Millipore) and phosphatase inhibitor (Sigma-Aldrich). Lysates were sonicated and boiled at 95° C. for 5 minutes. Protein concentration was determined by bicinchonic acid (BCA) method (Pierce), equal amount of protein was separated on 5-20% SDS-PAGE gel (Genescript) and transferred to nitrocellulose or PVDF membrane (Biorad). Following transfer, membranes were blocked for 1 hour at room temperature in blocking buffer (Li-Cor) or 5% (w/v) BSA/TBS-Tween 0.1% (v/v). Primary antibodies were diluted in blocking buffer or 5% (w/v) BSA/TBS-Tween 0.1% (v/v) and incubated with the membranes at 4° C. overnight. Membranes were washed three times in TBS-Tween and incubated in diluted IRDye 800CW or HRP conjugated secondary antibody for 1 hour at room temperature. Following washing, membranes were scanned by Li-Cor Odyssey CLx infrared imaging system or treated with the Western Lightning ECL-plus reagents (PerkinElmer) and exposed to autoradiography films (LabScientific).

[2] = system: α-Syn PFF inoculated WT mice; assay: Morris Water Maze, α-Syn PFF inoculated WT mice; assay type: in vivo; conditions: EHT 12 mg/kg/day and/or caffeine 50 mg/kg/day, 6 months post-inoculation, test also not affected by PFF inoculation
Excerpt: as §1, with “All animal procedures were approved by the Rutgers-Robert Wood Johnson Medical School Institutional Animal Care and Use Committee and were performed according to the National Institutes of Health Guide for the Care and Use of Laboratory Animals.” left out

Syn^Tg mice [3] = assay: Morris Water Maze, Syn^Tg mice; assay type: in vivo; conditions: EHT 12 mg/kg/day in chow and/or caffeine 50 mg/kg/day in drinking water from weaning until six months of age, vs untreated Syn^Tg mice
Excerpt: as §1, with “All animal procedures were approved by the Rutgers-Robert Wood Johnson Medical School Institutional Animal Care and Use Committee and were performed according to the National Institutes of Health Guide for the Care and Use of Laboratory Animals.” left out

PP2A [4] = assay: Western blot of PP2A methylation in SH-SY5Y cells challenged with α-Syn PFF; assay type: cell-based, Human; conditions: SH-SY5Y cells challenged with mouse α-Syn PFF for 7 days; caffeine and/or EHT added to the medium
Experimental: as §2

Syn^Tg mice [5] = conditions: cited from earlier work
Iba1 = assay: Immunohistochemical staining of Iba-1 in the striatum, Syn^Tg mice; assay type: in vivo; conditions: EHT 12 mg/kg/day and/or caffeine 50 mg/kg/day until six months of age
Excerpt: Neuroinflammation is one of the neuropathological features of PD and models of α-synucleinopathy including Syn^Tg mice (Lee K W, et al. (2011) Enhanced phosphatase activity attenuates alpha-synucleinopathy in a mouse model. J Neurosci 31(19):6963-6971).
Thy1-α-synuclein transgenic mice (Syn^Tg) on BDF1 background overexpressing human wild-type α-synuclein under the control of the Thy1 promoter were maintained by mating heterozygous transgenic females with WT BDF1 males (Rockenstein E, et al. (2002) Differential neuropathological alterations in transgenic mice expressing alpha-synuclein from the platelet-derived growth factor and Thy-1 promoters. J Neurosci Res 68(5):568-578). BDF1 mice (mixed C57BL/6-DBA/2) were generated every three months by mating female C57BL/6 (The Jackson Laboratory) and male DBA/2 mice (Charles River). Experiments were performed with male transgenic mice and their WT littermates. […] Wild-type littermates received regular water and control chow. […] Mice were weighed and their food and water intake was quantified weekly. […]
Vectastain elite ABC kit (Vector Laboratories, Burlingame, Calif.) and 3,3′-diaminobenzidine (Sigma-Aldrich) were used for amplifying and color development. […] For other stains, the whole microscopic field was analyzed. For p-α-Syn stains in the cortex, four matching regions in each of two sections per animal were counted.

Syn^Tg mice [6] = assay: Rotarod, Syn^Tg mice; assay type: in vivo; conditions: EHT 12 mg/kg/day in chow and/or caffeine 50 mg/kg/day in drinking water from weaning until six months of age, vs untreated Syn^Tg mice
Excerpt: as §1, with “All animal procedures were approved by the Rutgers-Robert Wood Johnson Medical School Institutional Animal Care and Use Committee and were performed according to the National Institutes of Health Guide for the Care and Use of Laboratory Animals.” left out

SH-SY5Y cells = assay: Cytotoxicity of α-Syn PFF by propidium iodide (PI) exclusion in SH-SY5Y cells; assay type: cell-based, Human; conditions: SH-SY5Y cells challenged with mouse α-Syn PFF for seven days; vs untreated α-Syn PFF-challenged cells (2.5 fold increase of PI positive cells)

CCCCCCCCCCCCCCCCCCCC(=O)NCCc1c[nH]c2ccc(O)cc12 [EHT, eicosanoyl-5-hydroxytryptamide]
ratio between methyl- and demethyl-PP2A (PP2A [1]): did not change
Demethylated PP2A (demethyl-PP2A) levels (PP2A [1]; normalized to total PP2A): not affected
Methylated PP2A (Methyl-PP2A) levels (PP2A [1]; normalized to total PP2A): did not change
Learning and memory task on the Morris Water Maze [2]: not affected
performance on the Morris Water Maze (Syn^Tg mice [3]): did not improve performance
demethylated PP2A levels (PP2A [4]): partially reversed this trend
methyl- to demethyl-PP2A ratio (PP2A [4]): not individually
methylated PP2A levels (PP2A [4]): partially reversed this trend
molecular, histochemical, and behavioral benefits (Syn^Tg mice [5]; EHT 12 mg/kg/day in chow, nine months of treatment): partial amelioration
PP2A methylation in brain tissue lysates (Syn^Tg mice [5]; EHT alone for nine months, dose dependent, more evident at 120 mg/kg/day): modulated PP2A methylation
accumulation of p-α-Syn (Syn^Tg mice [5]; EHT alone for nine months, more evident at 120 mg/kg/day): reduced the accumulation of p-α-Syn
microglial activation (Iba1) in the striatum (Iba1): partially but insignificantly attenuated
performance on the rotarod (Syn^Tg mice [6]): did not improve performance
cytotoxicity of α-Syn PFF, number of PI positive cells (cell viability) (SH-SY5Y cells): modestly protected
